Like-named read-outs stand apart in the source and are kept apart here.
Tested on: patient experiencing an allergic emergency (symptoms of anaphylaxis)
Settings: approximately 5 minutes apart
Experimental: (§1) A patient experiencing an allergic emergency initiates treatment at the onset of shortness of breath by self administering 40 mg of epinephrine free base in a buccal dosage form.
as §1
A patient experiencing an allergic emergency initiates treatment at the onset of shortness of breath by self administering 40 mg of epinephrine free base in a lingual dosage form.

Measured: patient's symptoms of anaphylaxis

CNC[C@H](O)c1ccc(O)c(O)c1 [epinephrine]
relieved: Example 1: 40 mg buccal, second 40 mg buccal, then first auto-injected 0.3 mg dose, outcome within about five minutes after the first injectable dose | Example 2: 40 mg buccal, 60 mg buccal, then two auto-injected 0.3 mg doses, outcome within about five minutes after the second injectable dose | Example 3: 40 mg lingual, 60 mg lingual, then two auto-injected 0.3 mg doses, outcome within about five minutes after the second injectable dose

Reference: patent publication US20070293582A1, “Epinephrine dosing regimens comprising buccal, lingual or sublingual and injectable dosage forms” (priority 2006, published 2007)
